Data from paper PMC4965013, “Open Source Drug Discovery with the Malaria Box Compound Collection for Neglected Diseases and Beyond” (PLoS Pathogens, 2016).
Read-outs that look alike come from different tables or passages of the source.

Experiments:
P. falciparum 3D7 = test: [3H]-hypoxanthine growth inhibition, modified HCO3- or O2; type: cell-based; conditions: for IC50: Plasmodium falciparum
[1] = system: P. falciparum 3D7 trophozoites; test: Metabolomic fingerprint profiling LC-MS; type: cell-based, Plasmodium falciparum; design: UDP-D-glucose / ADP-D-glucose: unit not given here; conditions: for Acetyllysine / N-acetyl-L-ornithine / N-carbamoyl-L-aspartate / NADPH / dAMP / dCMP / dTDP / dTMP / dTTP / dihydroorotate / orotate / DLH / DLS/SDL/SID / PD / PEE / PVNF / 3-phosphoglycerate / ADP-D-glucose / ATP / CDP / D-sedoheptulose-1/7-phosphate / FAD / GMP / NAD+ / NADP+ / Octoluse Bisphosphate / Pyroglutamic acid / UDP-D-glucose / UDP-D-glucuronate / UDP-N-acetyl-glucosamine / UDP / UMP / UTP / a-ketoglutarate / citrate/isocitrate / cytidine / dATP / dGMP/AMP / fumarate / glucose-1/6-phosphate / glycerate / guanine / guanosine / hypoxanthine / indole / inosine / nicotinate / ornithine / phosphoenolpyruvate / pyruvate / ribose-phosphate / sarcosine/alanine / sn-glycerol-3-phosphate / succinate/methylmalonic acid / uridine / xanthosine: S2 Table Metabolomics; for Acetyllysine: metabolite Acetyllysine; for N-acetyl-L-ornithine: metabolite N-acetyl-L-ornithine; for N-carbamoyl-L-aspartate: metabolite N-carbamoyl-L-aspartate; for NADPH: metabolite NADPH; for dAMP: metabolite dAMP; for dCMP: metabolite dCMP; for dTDP: metabolite dTDP; for dTMP: metabolite dTMP; for dTTP: metabolite dTTP; for dihydroorotate: metabolite dihydroorotate; for orotate: metabolite orotate; for DLH: peptide DLH; for DLS/SDL/SID: peptide DLS/SDL/SID; for PD: peptide PD; for PEE: peptide PEE; for PVNF: peptide PVNF; for 3-phosphoglycerate: metabolite 3-phosphoglycerate; for ADP-D-glucose: metabolite ADP-D-glucose; for ATP: metabolite ATP; for CDP: metabolite CDP; for CDP / D-sedoheptulose-1/7-phosphate / GMP / Octoluse Bisphosphate / UDP / UMP / UTP / citrate/isocitrate / dGMP/AMP / fumarate / glucose-1/6-phosphate / glycerate / guanine / guanosine / inosine / pyruvate / sarcosine/alanine / succinate/methylmalonic acid / uridine / xanthosine: change in metabolite level after compound treatment; for D-sedoheptulose-1/7-phosphate: metabolite D-sedoheptulose-1/7-phosphate; for FAD: metabolite FAD; for GMP: metabolite GMP; for NAD+: metabolite NAD+; for NADP+: metabolite NADP+; for Octoluse Bisphosphate: metabolite Octoluse Bisphosphate; for Pyroglutamic acid: metabolite Pyroglutamic acid; for UDP-D-glucose: metabolite UDP-D-glucose; for UDP-D-glucuronate: metabolite UDP-D-glucuronate; for UDP-N-acetyl-glucosamine: metabolite UDP-N-acetyl-glucosamine; for UDP: metabolite UDP; for UMP: metabolite UMP; for UTP: metabolite UTP; for a-ketoglutarate: metabolite a-ketoglutarate; for citrate/isocitrate: metabolite citrate/isocitrate; for cytidine: metabolite cytidine; for dATP: metabolite dATP; for dGMP/AMP: metabolite dGMP/AMP; for fumarate: metabolite fumarate; for glucose-1/6-phosphate: metabolite glucose-1/6-phosphate; for glycerate: metabolite glycerate; for guanine: metabolite guanine; for guanosine: metabolite guanosine; for hypoxanthine: metabolite hypoxanthine; for indole: metabolite indole; for inosine: metabolite inosine; for 2_3-Diphosphoglyceric acid / 4-phosphopantothenate / 6-phospho-D-gluconate / FMN / IMP / Pyrophosphate / Sedoheptoluse bisphosphate / cyclic-AMP / glutathione disulfide / lactate / myo-inositol: metabolite level change after treatment; for nicotinate: metabolite nicotinate; for ornithine: metabolite ornithine; for phosphoenolpyruvate: metabolite phosphoenolpyruvate; for pyruvate: metabolite pyruvate; for ribose-phosphate: metabolite ribose-phosphate; for sarcosine/alanine: metabolite sarcosine/alanine; for sn-glycerol-3-phosphate: metabolite sn-glycerol-3-phosphate; for succinate/methylmalonic acid: metabolite succinate/methylmalonic acid; for uridine: metabolite uridine; for xanthosine: metabolite xanthosine
P. falciparum = test: EC50 listed in S2 Table Metabolomics (used to set the concentration tested); type: cell-based; conditions: Plasmodium falciparum, read-out: EC50_nM

CCC1(C)CC(CCNCc2ccccc2O)(c2ccc(C)cc2)CCO1 (stereo not shown) [MMV019406]
fold change (IC50normal/ IC50hypoxia) (P. falciparum 3D7): 2.3 | IC50 (P. falciparum 3D7; 3D7, read-out: P. falciparum 3D7 IC50 1% O2): 236 nM | IC50 (P. falciparum 3D7; 3D7, read-out: P. falciparum 3D7 IC50 5% O2): 540 nM | Acetyllysine [1]: -2.519 | N-acetyl-L-ornithine [1]: -1.511 | N-carbamoyl-L-aspartate [1]: -2.298 | NADPH [1]: 0.4736 | dAMP [1]: 0.284 | dCMP [1]: -0.09039 | dTDP [1]: 0.1057 | dTMP [1]: 0.004037 | dTTP [1]: -0.4082 | dihydroorotate [1]: -2.242 | orotate [1]: -1.534 | DLH [1]: -2.275 | DLS/SDL/SID [1]: -1.841 | PD [1]: -2.354 | PEE [1]: -2.262 | PVNF [1]: -2.251 | 3-phosphoglycerate [1]: -0.1564 | ADP-D-glucose [1]: -0.3945 | ATP [1]: -0.512 | CDP [1]: 0.05599 | D-sedoheptulose-1/7-phosphate [1]: -0.4162 | FAD [1]: -0.02006 | GMP [1]: -0.3975 | NAD+ [1]: 0.008417 | NADP+ [1]: -0.1427 | Octoluse Bisphosphate [1]: -0.6015 | Pyroglutamic acid [1]: 0.2098 | UDP-D-glucose [1]: -0.0942 | UDP-D-glucuronate [1]: -0.3214 | UDP-N-acetyl-glucosamine [1]: -0.03854 | UDP [1]: -0.04555 | UMP [1]: -0.1795 | UTP [1]: -0.2654 | a-ketoglutarate [1]: -0.6947 | citrate/isocitrate [1]: 0.006162 | cytidine [1]: 0.3562 | dATP [1]: 0.258 | dGMP/AMP [1]: 0.2244 | fumarate [1]: -1.313 | glucose-1/6-phosphate [1]: -0.1461 | glycerate [1]: -0.1204 | guanine [1]: -0.06557 | guanosine [1]: -0.1693 | hypoxanthine [1]: 0.07201 | indole [1]: -0.04528 | inosine [1]: -0.2118 | 2_3-Diphosphoglyceric acid [1]: -0.5043 | 4-phosphopantothenate [1]: -0.1061 | 6-phospho-D-gluconate [1]: -0.2502 | FMN [1]: -0.1097 | IMP [1]: -0.4258 | Pyrophosphate [1]: -0.3998 | Sedoheptoluse bisphosphate [1]: -0.4722 | cyclic-AMP [1]: -0.5498 | glutathione disulfide [1]: -0.423 | lactate [1]: -0.2201 | myo-inositol [1]: -0.4627 | nicotinate [1]: 0.2145 | ornithine [1]: -0.4607 | phosphoenolpyruvate [1]: -0.0532 | pyruvate [1]: 0.03561 | ribose-phosphate [1]: -0.5159 | sarcosine/alanine [1]: -1.233 | sn-glycerol-3-phosphate [1]: -0.3535 | succinate/methylmalonic acid [1]: -0.02906 | uridine [1]: -0.4944 | xanthosine [1]: -0.9536 | EC50 (P. falciparum): 142 nM

CNCCCNc1ccnc2cc(Cl)ccc12 [MMV020500]
fold change (IC50reduced/IC50normal) (P. falciparum 3D7): 3.9 | IC50 (P. falciparum 3D7; 3D7, read-out: P. falciparum 3D7 IC50 HCO3- (2g/L), standard media): 40 nM | IC50 (P. falciparum 3D7; 3D7, HCO3- reduced media, read-out: P. falciparum 3D7 IC50 HCO3- reduced): 155 nM | Acetyllysine [1]: -2.213 | N-acetyl-L-ornithine [1]: -0.8185 | N-carbamoyl-L-aspartate [1]: 0.6081 | NADPH [1]: 0.8295 | dAMP [1]: 1.814 | dCMP [1]: 0.8961 | dTDP [1]: 0.7101 | dTMP [1]: 2.186 | dTTP [1]: -0.2992 | dihydroorotate [1]: 0.1598 | orotate [1]: 0.0865 | DLH [1]: -2.137 | DLS/SDL/SID [1]: -0.7574 | PD [1]: -1.597 | PEE [1]: -0.2916 | PVNF [1]: -1.612 | 3-phosphoglycerate [1]: 0.07452 | ADP-D-glucose [1]: -0.08737 | ATP [1]: -0.9785 | CDP [1]: 0.5532 | D-sedoheptulose-1/7-phosphate [1]: 1.176 | FAD [1]: -0.249 | GMP [1]: 1.138 | NAD+ [1]: 0.8214 | NADP+ [1]: -0.06525 | Octoluse Bisphosphate [1]: -0.4524 | Pyroglutamic acid [1]: 0.1099 | UDP-D-glucose [1]: -0.02951 | UDP-D-glucuronate [1]: -0.3318 | UDP-N-acetyl-glucosamine [1]: 0.05445 | UDP [1]: 0.8779 | UMP [1]: 0.5345 | UTP [1]: -0.9493 | a-ketoglutarate [1]: 0.1415 | citrate/isocitrate [1]: -0.9893 | cytidine [1]: -0.1492 | dATP [1]: -0.4735 | dGMP/AMP [1]: 1.367 | fumarate [1]: -0.1707 | glucose-1/6-phosphate [1]: -0.009969 | glycerate [1]: -0.6605 | guanine [1]: 0.2615 | guanosine [1]: -0.1451 | hypoxanthine [1]: -0.2256 | indole [1]: -0.03127 | inosine [1]: 0.04049 | 2_3-Diphosphoglyceric acid [1]: -0.286 | 4-phosphopantothenate [1]: 0.7597 | 6-phospho-D-gluconate [1]: 0.1729 | FMN [1]: 0.009843 | IMP [1]: 0.8224 | Pyrophosphate [1]: -0.4794 | Sedoheptoluse bisphosphate [1]: -0.0186 | cyclic-AMP [1]: 0.9961 | glutathione disulfide [1]: -0.1428 | lactate [1]: -0.3926 | myo-inositol [1]: -0.6279 | nicotinate [1]: 0.7754 | ornithine [1]: -0.4966 | phosphoenolpyruvate [1]: 0.07414 | pyruvate [1]: -0.1857 | ribose-phosphate [1]: -0.6716 | sarcosine/alanine [1]: -0.5483 | sn-glycerol-3-phosphate [1]: -0.4228 | succinate/methylmalonic acid [1]: 0.4498 | uridine [1]: -0.2827 | xanthosine [1]: -0.8962 | EC50 (P. falciparum; EC50 used for Factor_XEC50 in metabolomics): 82.2 nM
